# Measured values from US20190375708A1 (VenatoRx Pharmaceuticals, Inc., priority 2018, published 2019).
# Assays:
# [1] = tested on: HBV replication in HepAD38 cells; experiment: Anti-HBV replication assay in HepAD38 cells (QPCR of extracellular HBV DNA); format: cell-based, HBV (genotype D, serotype ayw); settings: Hepatitis B virus, 168 h, 7 days incubation, extracellular HBV DNA by QPCR, read-out: Anti-HBV EC50
# How it was run: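 Steps: seed HepAD38 overnight without tetracycline; refresh medium and add 1 log10 serial dilutions ([…]); incubate 7 days at 37 °C; quantify supernatant HBV DNA by QPCR; derive EC50 from a 4-parameter dose-response fit.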
# [2] = In vitro cytotoxicity assay (MTT cell viability) in HepG2 cells; format: cell-based, human; settings: human
# How it was run: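 Parental HepG2 cells in EMEM + 10% FBS were exposed to compounds (8 half-log dilutions, 30 μM to 1.0 nM) for 7 days at 37 °C, 5% CO2. MTT was then added for 3-4 h, formazan dissolved in DMSO and absorbance read at 492 nm; CC50 came from 4-parameter fits against vehicle controls.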
compound,measurement,setting,value
"Cc1cc(NC(=O)c2c(C)c(C(=O)C(=O)N[C@H]3CCOC[C@@H]3O)n(C)c2C)ccc1F [Example 187, N-(4-fluoro-3-methylphenyl)-5-(2-(((3R,4S)-3-hydroxytetrahydro-2H-pyran-4-yl)amino)-2-oxoacetyl)-1,2,4-trimethyl-1H-pyrrole-3-carboxamide]",EC50,[1],> 1000 nM
same,CC50 at 7 days,[2],> 30000 nM
"Cc1noc([C@H](C)NC(=O)C(=O)c2c(Cl)c(C(=O)Nc3ccc(F)c(Cl)c3)c3n2CCC3)n1 [Example 553, (S)-6-chloro-N-(3-chloro-4-fluorophenyl)-5-(2-((1-(3-methyl-1,2,4-oxadiazol-5-yl)ethyl)amino)-2-oxoacetyl)-2,3-dihydro-1H-pyrrolizine-7-carboxamide]",EC50,[1],< 50 nM
same,CC50 at 7 days,[2],5000 to 30000 nM
"Cc1cc(NC(=O)c2c(Cl)c(C(=O)C(=O)NC3(CO)CCC3)n3c2CCCC3)ccc1F [Example 504, 2-chloro-N-(4-fluoro-3-methylphenyl)-3-(2-((1-(hydroxymethyl)cyclobutyl)amino)-2-oxoacetyl)-5,6,7,8-tetrahydroindolizine-1-carboxamide]",EC50,[1],< 50 nM
same,CC50 at 7 days,[2],5000 to 30000 nM
"Cc1cc(NC(=O)c2c(C)c(C(=O)C(=O)NC3CCN(c4cnccn4)CC3)n(C)c2C)ccc1F [Example 659, N-(4-fluoro-3-methylphenyl)-1,2,4-trimethyl-5-(2-oxo-2-((1-(pyrazin-2-yl)piperidin-4-yl)amino)acetyl)-1H-pyrrole-3-carboxamide]",EC50,[1],< 50 nM
same,CC50 at 7 days,[2],> 30000 nM
"Cc1c(C(=O)Nc2ccc(F)c(Cl)c2)c2n(c1C(=O)C(=O)N[C@H]1C[C@H](O)C1)CCCC2 [Example 449, N-(3-chloro-4-fluorophenyl)-3-(2-(((1r,3r)-3-hydroxycyclobutyl)amino)-2-oxoacetyl)-2-methyl-5,6,7,8-tetrahydroindoliziine-1-carboxamide]",EC50,[1],50 to 499 nM
same,CC50 at 7 days,[2],> 30000 nM
"Cc1cc(NC(=O)c2c(C)c(C(=O)C(=O)NC3CCS(=O)(=O)C(C)(C)C3)n(C)c2C)ccc1F (stereo not shown) [Example 623, 5-(2-((2,2-dimethyl-1,1-dioxidotetrahydro-2H-thiopyran-4-yl)amino)-2-oxoacetyl)-N-(4-fluoro-3-methylphenyl)-1,2,4-trimethyl-1H-pyrrole-3-carboxamide]",EC50,[1],< 50 nM
same,CC50 at 7 days,[2],> 30000 nM
"Cc1cc(NC(=O)c2c(C)c(C(=O)C(=O)N[C@H]3CNC(=O)C34CC4)n(C)c2C)ccc1F [Example 710, (R)-N-(4-fluoro-3-methylphenyl)-1,2,4-trimethyl-5-(2-oxo-2-((4-oxo-5-azaspiro[2.4]heptan-7-yl)amino)acetyl)-1H-pyrrole-3-carboxamide]",EC50,[1],< 50 nM
same,CC50 at 7 days,[2],> 30000 nM
"Cc1cc(NC(=O)c2c(C)c(C(=O)C(=O)N[C@H]3CCc4nc(N)sc4C3)n(C)c2C)ccc1F [Example 75, (S)-5-(2-((2-amino-4,5,6,7-tetrahydrobenzo[d]thiazol-6-yl)amino)-2-oxoacetyl)-N-(4-fluoro-3-methylphenyl)-1,2,4-trimethyl-1H-pyrrole-3-carboxamide]",EC50,[1],< 50 nM
same,CC50 at 7 days,[2],5000 to 30000 nM
"CC(=O)N1CC[C@H](NC(=O)C(=O)c2c(C)c(C(=O)Nc3ccc(F)c(C)c3)c(C)n2C)C1 [Example 666, (S)-5-(2-((1-acetylpyrrolidin-3-yl)amino)-2-oxoacetyl)-N-(4-fluoro-3-methylphenyl)-1,2,4-trimethyl-1H-pyrrole-3-carboxamide]",EC50,[1],< 50 nM
same,CC50 at 7 days,[2],> 30000 nM
"Cc1c(C(=O)Nc2cc(F)c(F)c(F)c2)c(C)n(C)c1C(=O)C(=O)Nc1ccc(F)nc1 [Example 321, 5-(2-((6-fluoropyridin-3-yl)amino)-2-oxoacetyl)-1,2,4-trimethyl-N-(3,4,5-trifluorophenyl)-1H-pyrrole-3-carboxamide]",EC50,[1],< 50 nM
same,CC50 at 7 days,[2],5000 to 30000 nM
"Cc1cc(NC(=O)c2c(C)c(C(=O)C(=O)N[C@H]3CCN(S(C)(=O)=O)C3)n(C)c2C)ccc1F [Example 667, (S)-N-(4-fluoro-3-methylphenyl)-1,2,4-trimethyl-5-(2-((1-(methylsulfonyl)pyrrolidin-3-yl)amino)-2-oxoacetyl)-1H-pyrrole-3-carboxamide]",EC50,[1],< 50 nM
same,CC50 at 7 days,[2],500 to 4990 nM
"O=C(NC1(CO)CC1)C(=O)c1c(Cl)c(C(=O)Nc2ccc(F)c(F)c2)c2n1CCC2 [Example 561, 6-chloro-N-(3,4-difluorohphenyl)-5-(2-((1-(hydroxymethyl)cyclopropyl)amino)-2-oxoacetyl)-2,3-dihydro-1H-pyrrolizine-7-carboxamide]",EC50,[1],< 50 nM
same,CC50 at 7 days,[2],> 30000 nM
"Cc1cc(NC(=O)c2c(C)c(C(=O)C(=O)NCCN3CCOCC3)n(C)c2C)ccc1F [Example 270, N-(4-fluoro-3-methylphenyl)-1,2,4-trimethyl-5-(2-((2-morpholinoethyl)amino)-2-oxoacetyl)-1H-pyrrole-3-carboxamide]",EC50,[1],< 50 nM
same,CC50 at 7 days,[2],> 30000 nM
"CC(=O)N1CC[C@@H](NC(=O)C(=O)c2c(C)c(C(=O)Nc3ccc(F)c(C)c3)c(C)n2C)C1 [Example 664, (R)-5-(2-((1-acetylpyrrolidin-3-yl)amino)-2-oxoacetyl)-N-(4-fluoro-3-methylphenyl)-1,2,4-trimethyl-1H-pyrrole-3-carboxamide]",EC50,[1],< 50 nM
same,CC50 at 7 days,[2],> 30000 nM
"Cc1cc(NC(=O)c2cc(C(=O)C(=O)NC[C@H](O)CO)n3c2CCCC3)ccc1F [Example 416, (S)-3-(2-((2,3-dihydroxypropyl)amino)-2-oxoacetyl)-N-(4-fluoro-3-methylphenyl)-5,6,7,8-tetrahydroindolizine-1-carboxamide]",EC50,[1],> 1000 nM
same,CC50 at 7 days,[2],> 30000 nM
"Cc1c(C(=O)Nc2ccc(F)nc2)c(C)n(C)c1C(=O)C(=O)N[C@]1(C)CC[C@H](O)CC1 [Example 240, N-(6-fluoropyridin-3-yl)-5-(2-(((1s,4s)-4-hydroxy-1-methylcyclohexyl)amino)-2-oxoacetyl)-1,2,4-trimethyl-1H-pyrrole-3-carboxmaide]",EC50,[1],50 to 499 nM
same,CC50 at 7 days,[2],> 30000 nM
"Cc1cc(NC(=O)c2c(C)c(C(=O)C(=O)N[C@H]3CC[C@H](CO)CC3)n(C)c2C)ccc1F [Example 675, N-(4-fluoro-3-methylphenyl)-5-(2-(((1r,4r)-4-(hydroxymethyl)cyclohexyl)amino)-2-oxoacetyl)-1,2,4-trimethyl-1H-pyrrole-3-carboxamide]",EC50,[1],< 50 nM
same,CC50 at 7 days,[2],> 30000 nM
"Cc1cc(NC(=O)c2c(Cl)c(C(=O)C(=O)NCC(C)(C)CO)n3c2CCCC3)ccc1F [Example 498, 2-chloro-N-(4-fluoro-3-methylphenyl)-3-(2-((3-hydroxy-2,2-dimethylpropyl)amino)-2-oxoacetyl)-5,6,7,8-tetrahydroindolizine-1-carboxamide]",EC50,[1],50 to 499 nM
same,CC50 at 7 days,[2],> 30000 nM
"Cc1nnc(C2(NC(=O)C(=O)c3c(C)c(C(=O)Nc4ccc(F)c(C)c4)c(C)n3CCF)CC2)o1 [Example 201, N-(4-fluoro-3-methylphenyl)-1-(2-fluoroethyl)-2,4-dimethyl-5-(2-((1-(5-methyl-1,3,4-oxadiazol-2-yl)cyclopropyl)amino)-2-oxoacetyl)-1H-pyrrole-3-carboxamide]",EC50,[1],50 to 499 nM
same,CC50 at 7 days,[2],> 30000 nM
"CO[C@H]1CC[C@@H](NC(=O)C(=O)c2c(C)c(C(=O)Nc3ccnc(Cl)c3)c(C)n2C)CC1 [Example 345, N-(2-chloropyridin-4-yl)-5-(2-(((1s,4s)-4-methoxycyclohexyl)amino)-2-oxoacetyl)-1,2,4-trimethyl-1H-pyrrole-3-carboxamide]",EC50,[1],< 50 nM
same,CC50 at 7 days,[2],> 30000 nM
